Source: PubChem BioAssay AID248 (DTP/NCI, 2004)
Several values for one entry are separate records, joined by “and”; a condition that tells them apart may be missing. Equal values may be shown once. Inconclusive results and toxic doses are left out. Rule as the data show it: active = T/C of 150% or more; inactive = T/C below 125%.

System: L1210 leukemia ip in BDF1 mice, survival T/C
Experiment: NCI In Vivo Anticancer Drug Screen. Data for tumor model L1210 Leukemia (intraperitoneal) in B6D2F1 (BDF1) mice
Conditions: endpoint: mean survival time, higher = longer survival
In short: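 Transplanted-tumor mice were given test agent; controls received vehicle only. Survival readings from the two groups were divided (treated over control).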

[1] = dose: 100.0 mg/kg/injection, schedule: Q01DX009 (ip), vehicle: Klucel (hydroxypropylcellulose) (HPC)
[2] = dose: 100.0 mg/kg/injection, schedule: Q04DX003 (ip), vehicle: Klucel (hydroxypropylcellulose) (HPC)
[3] = dose: 200.0 mg/kg/injection, schedule: Q01DX009 (ip), vehicle: Klucel (hydroxypropylcellulose) (HPC)
[4] = dose: 200.0 mg/kg/injection, schedule: Q04DX003 (ip), vehicle: Klucel (hydroxypropylcellulose) (HPC)
[5] = dose: 400.0 mg/kg/injection, schedule: Q01DX009 (ip), vehicle: Klucel (hydroxypropylcellulose) (HPC)
[6] = dose: 400.0 mg/kg/injection, schedule: Q04DX003 (ip), vehicle: Klucel (hydroxypropylcellulose) (HPC)
[7] = dose: 100.0 mg/kg/injection, schedule: Q01DX001 (ip), vehicle: saline
[8] = dose: 200.0 mg/kg/injection, schedule: Q01DX001 (ip), vehicle: saline
[9] = dose: 100.0 mg/kg/injection, schedule: Q04DX003 (ip), vehicle: saline
[10] = dose: 200.0 mg/kg/injection, schedule: Q04DX003 (ip), vehicle: saline
[11] = dose: 100.0 mg/kg/injection, schedule: Q04DX002 (ip), vehicle: saline
[12] = dose: 25.0 mg/kg/injection, schedule: Q01DX009 (ip), vehicle: Klucel (hydroxypropylcellulose) (HPC)
[13] = dose: 50.0 mg/kg/injection, schedule: Q01DX009 (ip), vehicle: Klucel (hydroxypropylcellulose) (HPC)
[14] = dose: 400.0 mg/kg/injection, schedule: Q01DX001 (ip), vehicle: saline

Measured: T/C

CC1(C)C/C(=C\c2cccc(Br)c2)C(=O)c2ccccc21
inactive: [1] 104 % of control | [2] 98 % of control | [3] 98 % of control | [4] 106 % of control | [5] 103 % of control | [6] 101 % of control

COc1cccc(C)c1NC(=O)NCCCl
inactive: [2] 100 % of control | [4] 94 % of control | [6] 94 % of control

CCCCCCC[As](=O)(O)CCCCCCC
inactive: dose: 50.0 mg/kg/injection, schedule: Q01DX001 (ip), vehicle: saline 106 % of control | [7] 103 % of control | [8] 101 % of control

O=C(CCl)OC(=O)C(Cl)(Cl)Cl
inactive: [9] 102 % of control | [10] 96 % of control

O=C(COc1ccc(Cl)c(Cl)c1)NCc1ccc[n+](Cc2cccc(Cl)c2S(=O)(=O)F)c1
inactive: dose: 25.0 mg/kg/injection, schedule: Q04DX003 (ip), vehicle: saline 103 % of control | dose: 50.0 mg/kg/injection, schedule: Q04DX003 (ip), vehicle: saline 101 % of control | [9] 93 % of control and 100 % of control

C/C=C\c1ccc(OC(=O)Nc2cccc(Cl)c2)c(OC)c1
inactive: dose: 100.0 mg/kg/injection, schedule: Q04DX002 (ip), vehicle: Klucel (hydroxypropylcellulose) (HPC) 101 % of control | dose: 200.0 mg/kg/injection, schedule: Q04DX002 (ip), vehicle: Klucel (hydroxypropylcellulose) (HPC) 95 % of control | dose: 400.0 mg/kg/injection, schedule: Q04DX002 (ip), vehicle: Klucel (hydroxypropylcellulose) (HPC) 92 % of control

Cc1c2ccnc(-c3ccc(F)cc3)c2cc2c1[nH]c1ccccc12
inactive: dose: 16.0 mg/kg/injection, schedule: Q01DX005 (ip), vehicle: saline 100 % of control | dose: 32.0 mg/kg/injection, schedule: Q01DX005 (ip), vehicle: saline 100 % of control | dose: 64.0 mg/kg/injection, schedule: Q01DX005 (ip), vehicle: saline 105 % of control | dose: 128.0 mg/kg/injection, schedule: Q01DX005 (ip), vehicle: saline 103 % of control

CC(=O)OC1CCC(C)(C2CCC3(C)C(C(C)CCCC(C)C)CCC3C2CC(=O)O)C(=O)C1 (stereo unspecified)
inactive: dose: 100.0 mg/kg/injection, schedule: Q04DX003 (ip), vehicle: saline with Tween-80 87 % of control | dose: 200.0 mg/kg/injection, schedule: Q01DX009 (ip), vehicle: saline with Tween-80 97 % of control | dose: 200.0 mg/kg/injection, schedule: Q04DX003 (ip), vehicle: saline with Tween-80 91 % of control | dose: 400.0 mg/kg/injection, schedule: Q04DX003 (ip), vehicle: saline with Tween-80 91 % of control

CC(C)COC(=O)c1ccc(NC(=S)Nc2ccccc2)cc1
inactive: [1] 93 % of control | [3] 93 % of control

CCN(CC#CCOc1ccc(Br)cc1)c1ccccc1
inactive: [11] 105 % of control | dose: 200.0 mg/kg/injection, schedule: Q04DX002 (ip), vehicle: saline 101 % of control | dose: 400.0 mg/kg/injection, schedule: Q04DX002 (ip), vehicle: saline 99 % of control

COc1cc2c(cc1OC)C(C=C(c1ccccc1)c1ccccc1)N(C)CC2 (stereo unspecified)
inactive: dose: 12.5 mg/kg/injection, schedule: Q01DX009 (ip), vehicle: Klucel (hydroxypropylcellulose) (HPC) 94 % of control | dose: 12.5 mg/kg/injection, schedule: Q04DX003 (ip), vehicle: Klucel (hydroxypropylcellulose) (HPC) 95 % of control | [12] 103 % of control | dose: 25.0 mg/kg/injection, schedule: Q04DX003 (ip), vehicle: Klucel (hydroxypropylcellulose) (HPC) 101 % of control | [13] 96 % of control | dose: 50.0 mg/kg/injection, schedule: Q04DX003 (ip), vehicle: Klucel (hydroxypropylcellulose) (HPC) 96 % of control

COc1ccc2c(c1)CCC1C2=CCC2C1C(=O)CCC2(OC)OC (stereo unspecified)
inactive: dose: 50.0 mg/kg/injection, schedule: Q01DX001 (ip), vehicle: Klucel (hydroxypropylcellulose) (HPC) 98 % of control | dose: 100.0 mg/kg/injection, schedule: Q01DX001 (ip), vehicle: Klucel (hydroxypropylcellulose) (HPC) 101 % of control | dose: 200.0 mg/kg/injection, schedule: Q01DX001 (ip), vehicle: Klucel (hydroxypropylcellulose) (HPC) 96 % of control

CCC1(C)C(=O)N(C)C(=O)N1Br (stereo unspecified)
inactive: [12] 96 % of control | [13] 101 % of control | [2] 97 % of control

Cc1cc([N+](=O)[O-])ccc1O
inactive: [7] 100 % of control | [8] 100 % of control

N#CC(C(N)=O)n1cnc(C(N)=O)c1N (stereo unspecified)
inactive: dose: 100.0 mg/kg/injection, schedule: Q01DX001 (ip), vehicle: carboxymethylcellulose (CMC) 97 % of control | dose: 200.0 mg/kg/injection, schedule: Q01DX001 (ip), vehicle: carboxymethylcellulose (CMC) 94 % of control | dose: 400.0 mg/kg/injection, schedule: Q01DX001 (ip), vehicle: carboxymethylcellulose (CMC) 96 % of control

O=C(CCl)c1ccc([N+](=O)[O-])o1
inactive: dose: 1.56 mg/kg/injection, schedule: Q01DX001 (ip), vehicle: Klucel (hydroxypropylcellulose) (HPC) 98 % of control | dose: 3.12 mg/kg/injection, schedule: Q01DX001 (ip), vehicle: Klucel (hydroxypropylcellulose) (HPC) 95 % of control | dose: 6.25 mg/kg/injection, schedule: Q01DX001 (ip), vehicle: Klucel (hydroxypropylcellulose) (HPC) 96 % of control

O=c1[nH][nH]c(-c2ccccc2)c1Cc1ccccc1
inactive: [9] 95 % of control | [10] 96 % of control | dose: 400.0 mg/kg/injection, schedule: Q04DX003 (ip), vehicle: saline 96 % of control

O=C1C=CC(=O)N1Cc1ccncc1
inactive: [7] 101 % of control | [8] 95 % of control | [14] 95 % of control

C1CNC(CN2CCCC2)C1 (stereo unspecified)
inactive: dose: 75.0 mg/kg/injection, schedule: Q01DX001 (ip), vehicle: saline 93 % of control | dose: 150.0 mg/kg/injection, schedule: Q01DX001 (ip), vehicle: saline 101 % of control | dose: 300.0 mg/kg/injection, schedule: Q01DX001 (ip), vehicle: saline 103 % of control

O=[N+]([O-])c1ccc(Br)o1
inactive: dose: 6.25 mg/kg/injection, schedule: Q04DX003 (ip), vehicle: saline with Tween-80 110 % of control | dose: 12.5 mg/kg/injection, schedule: Q04DX003 (ip), vehicle: saline with Tween-80 101 % of control | dose: 25.0 mg/kg/injection, schedule: Q04DX003 (ip), vehicle: saline with Tween-80 105 % of control

CC(=O)Oc1c(C(C)(C)C)cc(C)cc1C(C)(C)C
inactive: [13] 100 % of control | [1] 100 % of control | [3] 103 % of control

C1=Cc2ccccc2C(c2ccccn2)c2ccccc21
inactive: dose: 100.0 mg/kg/injection, schedule: Q04DX003 (ip), vehicle: gum acacia 90 % of control | dose: 200.0 mg/kg/injection, schedule: Q04DX003 (ip), vehicle: gum acacia 97 % of control | dose: 400.0 mg/kg/injection, schedule: Q04DX003 (ip), vehicle: gum acacia 93 % of control

CC(C)CCN=C(N)N=C(N)N
inactive: dose: 25.0 mg/kg/injection, schedule: Q01DX009 (ip), vehicle: saline 105 % of control | dose: 50.0 mg/kg/injection, schedule: Q01DX009 (ip), vehicle: saline 107 % of control | dose: 100.0 mg/kg/injection, schedule: Q01DX009 (ip), vehicle: saline 104 % of control | [11] 100 % of control

CSc1ccc(NC(=O)Nc2cccc(C)c2C)cc1
inactive: [1] 92 % of control | [3] 95 % of control | [5] 103 % of control

OCC1OC(n2c(Cl)nc3ccccc32)C(O)C1O (stereo unspecified)
inactive: [7] 97 % of control | [8] 103 % of control | [14] 103 % of control
